Data published in patent publication US4242335A, “Novel 17α-aryl-steroids” (Roussel Uclaf, priority 1977, dated 1980).

Columns and labels:
[1] = molecular target: T1, uterine reception of progesterone (Oryctolagus cuniculus, UniProt P06186); experiment: Progestomimetic activity by hormonal receptor method (displacement of tritiated product R in rabbit uterus cytosol); assay type: binding; details: for progestomimetic activity (in words): conclusion from Table I; for relative affinity of the test product (ARL), progestomimetic: rabbit uterus cytosol, 0° C., 2 hours, progesterone = 100; for activity weaker than progesterone: from Table I
T1 construct: from tissue; host or cells: uterus cytosol (105,000 g supernatant) of immature rabbits primed with estradiol
T1 sequence (P06186 1-930): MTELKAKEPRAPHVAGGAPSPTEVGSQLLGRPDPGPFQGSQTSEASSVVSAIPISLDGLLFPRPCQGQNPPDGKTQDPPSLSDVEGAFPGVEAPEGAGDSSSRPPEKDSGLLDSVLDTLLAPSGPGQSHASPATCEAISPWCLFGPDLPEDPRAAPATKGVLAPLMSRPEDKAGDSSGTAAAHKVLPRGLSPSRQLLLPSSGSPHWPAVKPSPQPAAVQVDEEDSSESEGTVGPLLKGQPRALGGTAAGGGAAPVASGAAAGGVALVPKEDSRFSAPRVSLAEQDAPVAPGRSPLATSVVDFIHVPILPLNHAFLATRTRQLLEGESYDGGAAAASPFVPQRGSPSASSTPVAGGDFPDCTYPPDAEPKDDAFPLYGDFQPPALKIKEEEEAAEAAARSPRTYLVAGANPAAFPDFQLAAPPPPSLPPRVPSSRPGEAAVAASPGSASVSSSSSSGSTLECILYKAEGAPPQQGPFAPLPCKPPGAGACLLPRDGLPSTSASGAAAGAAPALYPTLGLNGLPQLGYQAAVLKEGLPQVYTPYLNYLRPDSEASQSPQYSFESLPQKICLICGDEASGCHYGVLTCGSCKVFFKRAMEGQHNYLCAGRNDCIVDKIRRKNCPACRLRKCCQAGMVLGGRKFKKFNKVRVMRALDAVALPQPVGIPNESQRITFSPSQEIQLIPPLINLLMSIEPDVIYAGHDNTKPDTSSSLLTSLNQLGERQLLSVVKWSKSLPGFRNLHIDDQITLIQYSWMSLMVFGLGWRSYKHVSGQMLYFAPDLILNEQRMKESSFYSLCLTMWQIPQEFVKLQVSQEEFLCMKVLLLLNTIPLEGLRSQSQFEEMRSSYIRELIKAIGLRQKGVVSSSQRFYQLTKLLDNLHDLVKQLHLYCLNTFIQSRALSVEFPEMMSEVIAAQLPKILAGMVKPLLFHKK
Experimental: The progestomimetic activity was determined by the hormonal receptor method of Raynaud et al [J. Ster. Biochem., Vol. 6 (1975), p-615-622 and Physiology and Genetics of Reproduction, part A (1975), p. 143-160]. Immature rabbits received subcutaneously 25γ of estradiol and 5 days later, the animals were sacrificed and the uterus was removed and homogenized in a buffered solution of 10 mM of tromethamine, 0.25 M of saccharose and a pH of 7.4 with hydrochloric acid. The homogenate was centrifuged at 105,000 g during one hour and the surnageant or cytosol was adjusted to a dilution of 1/50 (weight/volume). The resulting solution was incubated at 0° C. for 2 hours in tubes with the same volume of cytosol with a fixed concentration of tritiated 17,21-dimethyl-19-nor-Δ^4,9 -pregnadiene-3-20-dione (designated as tritiated Product R) in the presence or not of an increasing concentration of radioinactive 17,21-dimethyl-19-nor-Δ^4,9 -pregnadiene-3,20-dione (designated as cold product R) or progesterone or the test product. The radioactivity of the tritiated product R was determined after 2 hours by the technique of adsorption on carbon-dextran (1.25-0.625%). The curves representing the percentage of tritiated product R as a function of the log of the concentration, of cold product R, of progresterone or the test products and the I50 straight line parallel to the axis of the abcissess and ordinates [formula] were ploted. B/T max. is the percentage of tied tritiated product R when the product is not added and B/T min. is the percentage of tied tritiated product R when the maximum amount of cold product R is added. The intersections of these I50 straight lines and the curves permit the determination of the values: CP and CX: CP - concentration of cold progesterone which inhibits by 50% the fixation of the tritiated product R and CX - concentration of test product which inhibits by 50% the fixation of the tritiated product R. The relative affinity of the test product (ARL) was determined by the formula [formula] and the results are reported in Table I.

[2] = tested on: proliferation of endometric lacework (uterus); experiment: In vivo progestomimetic activity, Clauberg test on immature rabbits; parameters: species or system rabbit; details: for progestomimetic activity in vivo (in words): compared with ethynylnortestosterone, Table III; for endometrial proliferation, MacPhail Units: subcutaneous, 5 days
Experimental: The progestomimetic activity of products A, B and C were determined by the Clauberg test on immature rabbits previously sensibilized by subcutaneous administration of estradiol for 5 days at a daily dose of 5 μg. The test products were used in solution in olive oil containing 5% of benzyl alcohol and were subcutaneously administered for 5 days at different doses. The animals were killed on the 6th day and the uterus was removed to determine the proliferation of endometric lacework which is characteristic of progestomimetic activity. The results were compared with ethynylnortesterone administered in the same method in the same solvent. The results were expressed in MacPhail units in Table III.

[3] = molecular target: T2, prostatic reception of testosterone (Rattus norvegicus, UniProt P15207); experiment: Androgenic activity by hormonal receptor method (displacement of tritiated product R in rat prostate cytosol); assay type: binding; details: for relative affinity of the test product (ARL), androgenic: castrated male rat prostate cytosol, 0° C., 2 hours, testosterone = 100; for affinity for prostatic reception of testosterone (in words) / androgenic activity (in words): conclusion from Table II
T2 construct: The prostate was recovered from male rats castrated 24 hours earlier and was homogenized; from tissue; host or cells: prostate cytosol (105,000 g supernatant) of male rats castrated 24 hours earlier
T2 sequence (P15207 1-902): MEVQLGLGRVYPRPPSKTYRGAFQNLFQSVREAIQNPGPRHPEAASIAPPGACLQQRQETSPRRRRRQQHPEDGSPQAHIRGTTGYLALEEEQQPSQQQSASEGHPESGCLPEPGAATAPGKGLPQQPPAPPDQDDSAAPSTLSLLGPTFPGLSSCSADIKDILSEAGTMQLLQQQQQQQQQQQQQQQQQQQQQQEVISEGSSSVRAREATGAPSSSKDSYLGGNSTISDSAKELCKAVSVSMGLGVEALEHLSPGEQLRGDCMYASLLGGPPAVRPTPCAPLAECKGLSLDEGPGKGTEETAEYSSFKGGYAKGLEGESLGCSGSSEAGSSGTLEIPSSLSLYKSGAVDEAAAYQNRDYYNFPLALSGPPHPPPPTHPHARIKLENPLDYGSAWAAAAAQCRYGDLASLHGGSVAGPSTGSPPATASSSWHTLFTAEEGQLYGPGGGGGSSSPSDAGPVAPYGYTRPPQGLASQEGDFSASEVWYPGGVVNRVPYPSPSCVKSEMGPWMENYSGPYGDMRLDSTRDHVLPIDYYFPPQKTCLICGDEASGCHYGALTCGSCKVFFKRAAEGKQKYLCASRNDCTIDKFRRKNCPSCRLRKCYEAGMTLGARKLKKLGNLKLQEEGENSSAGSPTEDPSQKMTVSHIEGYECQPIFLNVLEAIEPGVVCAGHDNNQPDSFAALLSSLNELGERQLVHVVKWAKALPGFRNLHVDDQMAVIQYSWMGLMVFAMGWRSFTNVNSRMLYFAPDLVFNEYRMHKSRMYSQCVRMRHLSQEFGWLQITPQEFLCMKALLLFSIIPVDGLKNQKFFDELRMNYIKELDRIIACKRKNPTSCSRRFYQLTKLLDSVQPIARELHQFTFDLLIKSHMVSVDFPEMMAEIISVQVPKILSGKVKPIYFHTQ
Experimental: This test also used the method of Raynaud et al discussed above. The prostate was recovered from male rats castrated 24 hours earlier and was homogenized in a buffer containing 10 mM of tromethamine and 0.25 M of saccharose and sufficient hydrochloric acid for a pH of 7.4 The homogenate was centrifuged at 105,000 g for one hour and the surnageant liquid or cytosol was adjusted to a dilution of 1/5 (weight/volume).
The radioactivity of the tied tritiated product was determined after 2 hours by absorption technique on carbondextran (1.25%-0.625%). […] B/T max. is the percentage of tied tritiated product R when the product is not added and B/T min. is the percentage of tied tritiated product R when the maximum amount of cold product R is added.

SMILES | affinity for specific uterine reception of progesterone (in words) ([1]; compared with progesterone) | progestomimetic activity (in words) [1] | relative affinity of the test product (ARL), progestomimetic [1] | progestomimetic activity in vivo (in words) [2] | endometrial proliferation, MacPhail Units ([2]; dose 100 γ) [MacPhail Units] | endometrial proliferation, MacPhail Units ([2]; dose 500 γ) [MacPhail Units] | endometrial proliferation, MacPhail Units ([2]; dose 2500 γ) [MacPhail Units] | relative affinity of the test product (ARL), androgenic [3] | affinity for prostatic reception of testosterone (in words) [3] | androgenic activity (in words) [3] | activity weaker than progesterone ([1]; compared with progesterone) | endometrial proliferation, MacPhail Units ([2]; dose 1 mg) [MacPhail Units] | endometrial proliferation, MacPhail Units ([2]; dose 2 mg) [MacPhail Units] | endometrial proliferation, MacPhail Units ([2]; dose 200 γ) [MacPhail Units]
C[C@]12CC[C@H]3[C@@H](CCC4=CC(=O)CC[C@@H]43)[C@@H]1CC[C@@]2(O)c1ccccc1 [Product A, 17α-phenyl-Δ^4-estrene-17β-ol-3-one] | comparable to that of progesterone | progestomimetics | 80 | progestomimetic activity greater than ethynylnortestosterone | 2 | 2.7 | 3 | 0.3 | practically devoid of an affinity | devoid of adrogenic activity | – | – | – | –
C[C@]12CCC3=C4CCC(=O)C=C4CC[C@H]3[C@@H]1CC[C@@]2(O)c1ccccc1 [Product B, 17α-phenyl-Δ^4,9-estradiene-17β-ol-3-one] | – | progestomimetics | 37 | progestomimetic activity greater than ethynylnortestosterone | – | – | – | 0.2 | practically devoid of an affinity | devoid of adrogenic activity | about 3 times | 2.8 | 3.0 | 1
C[C@]12C=CC3=C4CCC(=O)C=C4CC[C@H]3[C@@H]1CC[C@@]2(O)c1ccccc1 [Product C, 17α-phenyl-Δ^4,9,11-estratriene-17β-ol-3-one] | – | progestomimetics | 27 | about the same order of activity as ethynylnortestosterone | – | – | – | ≤ 0.1 | practically devoid of an affinity | devoid of adrogenic activity | about 3 times | 1.8 | 2.9 | 0.8
C#C[C@]1(O)CC[C@H]2[C@@H]3CCC4=CC(=O)CC[C@@H]4[C@H]3CC[C@@]21C [ethynylnortestosterone, reference compound] | – | – | – | – | 1.2 | 1.5 | 2 | – | – | – | – | – | – | –
